# Reference: ChEMBL document CHEMBL1671852, “In vitro activities of linezolid against clinical isolates of Mycobacterium tuberculosis complex isolated in Taiwan over 10 years” (2008)
# Columns and labels:
# [1] = tested on: Mycobacterium tuberculosis; assay: Antibacterial activity against multidrug-resistant Mycobacterium tuberculosis by agar proportion method; assay type: functional
# [2] = tested on: Mycobacterium tuberculosis; assay: Antibacterial activity against multidrug-resistant Mycobacterium tuberculosis harboring gyrA D94A mutation by agar proportion method; assay type: functional
smiles,measurement,setting,value
CC(=O)NC[C@H]1CN(c2ccc(N3CCOCC3)c(F)c2)C(=O)O1 [LINEZOLID],MIC50,[1],0.5 µg/mL
same,MIC90,[1],0.5 µg/mL
same,MIC,[2],4 µg/mL
